Experimental data from ChEMBL document CHEMBL4765331, “Amides of pyrrole- and thiophene-fused anthraquinone derivatives: A role of the heterocyclic core in antitumor properties” (Eur J Med Chem, 2020).
Active and inactive are the calls of the source. The calls are words filed in the database; no cut-off is given here.

Tests used:
[1] = test system: NCI-H460; experiment: Antiproliferative activity against human NCI-H460 cells assessed as inhibition of cell proliferation measured after 72 hrs by MTT assay; format: functional, cell-based; conditions: NCI-H460, 72 h
[2] = test system: HCT-116; experiment: Antiproliferative activity against human HCT-116 cells assessed as inhibition of cell proliferation measured after 72 hrs by MTT assay; format: functional, cell-based; conditions: HCT-116, 72 h
[3] = test system: K562; experiment: Antiproliferative activity against human K562 cells assessed as inhibition of cell proliferation measured after 72 hrs by MTT assay; format: functional, cell-based; conditions: K562, 72 h
[4] = test system: TERT-RPE1; experiment: Cytotoxicity against human TERT-RPE1 cells assessed as inhibition of cell proliferation measured after 72 hrs by MTT assay; format: cell-based; conditions: RPE-1, 72 h
[5] = test system: HL-60; experiment: Antiproliferative activity against human HL-60 cells assessed as inhibition of cell proliferation measured after 72 hrs by MTT assay; format: functional, cell-based; conditions: HL-60, 72 h
[6] = test system: CAPAN-1; experiment: Antiproliferative activity against human CAPAN-1 cells assessed as inhibition of cell proliferation measured after 72 hrs by MTT assay; format: functional, cell-based; conditions: CAPAN-1, 72 h
[7] = test system: HCT-116; experiment: Antiproliferative activity against human HCT-116 cells with inactivated p53 gene assessed as inhibition of cell proliferation measured after 72 hrs by MTT assay; format: functional, cell-based; conditions: HCT-116, 72 h
[8] = test system: Calf thymus DNA; experiment: Binding affinity to calf thymus DNA assessed as binding constant by scatchard plot analysis; conditions: Bos taurus
[9] = test system: Calf thymus DNA; experiment: Binding affinity to calf thymus double stranded DNA at 10 uM measured after 5 mins by flourescence spectroscopy method; conditions: Bos taurus
[10] = test system: Calf thymus DNA; experiment: Binding affinity to calf thymus DNA assessed as dissociation constant by scatchard plot analysis; design: species or system Bos taurus
[11] = Antiproliferative activity against P-gp-positive/doxorubicin-resistant human K562/4 cells assessed as inhibition of cell proliferation measured after 72 hrs by MTT assay; format: functional; conditions: K562/4, 72 h
[12] = Resistance index, ratio of IC50 for human P-gp-positive/Doxorubicin-resistant K562/4 cells to IC50 for human K562 cells; format: functional
[13] = test system: Calf thymus DNA; experiment: Binding affinity to calf thymus DNA assessed as DNA intercalation by measuring decrease of negative DNA band at 245 nm at 50 uM by circular dichroism spectral analysis; format: tissue-based; conditions: Bos taurus
[14] = test system: Calf thymus DNA; experiment: Binding affinity to calf thymus DNA assessed as stoichiometry ratio of compound-DNA complex formation by scatchard plot analysis; conditions: Bos taurus
[15] = test system: P388; experiment: Antitumour activity against mouse P388 cells xenografted intraperitoneally in BDF1 mouse assessed as mean life span time at 20 mg/kg, ip administered qd for 5 days (reference value: 11.5 +/-0.9 days); format: functional; conditions: dose 20 mg/kg/day; time 5 day
[16] = test system: P388; experiment: Antitumour activity against mouse P388 cells xenografted intraperitoneally in BDF1 mouse assessed as […] T/C ratio at 20 mg/kg, ip administered qd for 5 days (reference value: 100%); format: functional; conditions: dose 20 mg/kg/day; time 5 day
[17] = Drug uptake in mouse NIH3T3 cells assessed as compound localization in nucleus at 1 uM measured after 15 mins by laser scanning microscope; format: ADME, subcellular; conditions: nih3t3, 0.25 h

Row | IC50 [1] | IC50 [2] | IC50 [3] | IC50 [5] | IC50 [7] | Drug uptake [17] | Compound | IC50 [4] | IC50 [6] | Kb [8] | Activity [9] | Kd [10] | IC50 [11] | Ratio IC50 [12] | Activity [13] | Ratio [14] | Time [15] | T/C [16]
1 | 2000 nM | 800 nM | 500 nM | 4600 nM | – | – | O=C1c2ccccc2C(=O)c2c1c(O)c1scc(C(=O)N[C@@H]3CCNC3)c1c2O | 15.5 µM | 2200 nM | – | – | – | – | – | – | – | – | –
2 | 16300 nM | 1800 nM | 1200 nM | 700 nM | 3200 nM | – | Cc1c(C(=O)N2CC[C@H](N)C2)c2c(O)c3c(c(O)c2n1C)C(=O)c1ccccc1C3=O | 16.1 µM | 1100 nM | 7.5 10^5/M | Active | 1300 nM | 25 µM | 19.2 | Active | 3 | – | –
3 | 1400 nM | 900 nM | 700 nM | 3900 nM | – | – | O=C1c2ccccc2C(=O)c2c1c(O)c1scc(C(=O)N[C@H]3CCNC3)c1c2O | 14.9 µM | 2800 nM | – | – | – | – | – | – | – | – | –
4 | 800 nM | 2000 nM | 1200 nM | 4100 nM | – | – | N[C@@H]1CCN(C(=O)c2csc3c(O)c4c(c(O)c23)C(=O)c2ccccc2C4=O)C1 | 12.6 µM | 2000 nM | – | – | – | – | – | – | – | – | –
5 | 2700 nM | 3200 nM | 6800 nM | 2600 nM | – | – | O=C1c2ccccc2C(=O)c2c1c(O)c1scc(C(=O)NC3CCCNC3)c1c2O (racemic) | 6.8 µM | 1200 nM | – | – | – | – | – | – | – | – | –
6 | 2900 nM | 1400 nM | 2300 nM | 800 nM | – | – | Cc1[nH]c2c(O)c3c(c(O)c2c1C(=O)N1CCC(N)CC1)C(=O)c1ccccc1C3=O | 14.2 µM | 1700 nM | – | – | – | – | – | – | – | – | –
7 | 16400 nM | 16900 nM | 2200 nM | 3400 nM | – | – | CC(=O)Cn1c(C)c(C(=O)N2CC[C@H](N)C2)c2c(O)c3c(c(O)c21)C(=O)c1ccccc1C3=O | > 20 µM | 13400 nM | – | – | – | – | – | – | – | – | –
8 | 20000 nM | 17100 nM | 13400 nM | 13300 nM | – | – | Cc1c(C(=O)N2CC[C@H](N)C2)c2c(O)c3c(c(O)c2n1CC(=O)O)C(=O)c1ccccc1C3=O | > 20 µM | 14300 nM | – | – | – | – | – | – | – | – | –
9 | 1100 nM | 1500 nM | 400 nM | 200 nM | – | – | Cc1[nH]c2c(O)c3c(c(O)c2c1C(=O)NC1CCNCC1)C(=O)c1ccccc1C3=O | 11.8 µM | 300 nM | – | – | – | – | – | – | – | – | –
10 | 1700 nM | 1900 nM | 2000 nM | 900 nM | – | – | NC1CCN(C(=O)c2csc3c(O)c4c(c(O)c23)C(=O)c2ccccc2C4=O)CC1 | 15.7 µM | 300 nM | – | – | – | – | – | – | – | – | –
11 | 5300 nM | 1800 nM | 700 nM | 1000 nM | – | – | Cc1[nH]c2c(O)c3c(c(O)c2c1C(=O)N[C@H]1CCNC1)C(=O)c1ccccc1C3=O | 17.1 µM | 1000 nM | – | – | – | – | – | – | – | – | –
12 | 14300 nM | 2200 nM | 1200 nM | 1300 nM | 2000 nM | – | CCCn1c(C)c(C(=O)N2CC[C@H](N)C2)c2c(O)c3c(c(O)c21)C(=O)c1ccccc1C3=O | 17.1 µM | 4500 nM | – | – | – | 7 µM | 5.8 | – | – | – | –
13 | 12700 nM | 4000 nM | 1300 nM | 4700 nM | 3800 nM | – | N[C@@H]1CN(C(=O)c2csc3c(O)c4c(c(O)c23)C(=O)c2ccccc2C4=O)C[C@H]1N | 9.1 µM | 2600 nM | – | – | – | 14.5 µM | 11.2 | – | – | – | –
14 | 2100 nM | 2300 nM | 1700 nM | 1100 nM | 2500 nM | – | CCn1c(C)c(C(=O)N2CC[C@H](N)C2)c2c(O)c3c(c(O)c21)C(=O)c1ccccc1C3=O | 13.6 µM | 1200 nM | – | – | – | 28 µM | 16.5 | – | – | – | –
15 | 1000 nM | 1000 nM | 3200 nM | 1800 nM | – | – | Cc1[nH]c2c(O)c3c(c(O)c2c1C(=O)NC1CCCNC1)C(=O)c1ccccc1C3=O (configuration not stated) | 12.5 µM | 400 nM | – | – | – | – | – | – | – | – | –
16 | 11400 nM | 4800 nM | 2400 nM | 3100 nM | 7000 nM | – | Cc1[nH]c2c(O)c3c(c(O)c2c1C(=O)N1C[C@@H](N)[C@H](N)C1)C(=O)c1ccccc1C3=O | > 20 µM | 8700 nM | – | – | – | > 50 µM | >20.8 | – | – | – | –
17 | 1200 nM | 1700 nM | 1500 nM | 1600 nM | – | – | O=C1c2ccccc2C(=O)c2c1c(O)c1scc(C(=O)NC3CCNCC3)c1c2O | 5.8 µM | 1200 nM | – | – | – | – | – | – | – | – | –
18 | 2600 nM | 2000 nM | 400 nM | 200 nM | – | – | Cc1[nH]c2c(O)c3c(c(O)c2c1C(=O)N1CCCC(N)C1)C(=O)c1ccccc1C3=O (configuration not stated) | 16.5 µM | 1100 nM | – | – | – | – | – | – | – | – | –
19 | 4300 nM | 800 nM | 1300 nM | 3000 nM | – | – | NC1CCCN(C(=O)c2csc3c(O)c4c(c(O)c23)C(=O)c2ccccc2C4=O)C1 (racemic) | 7.9 µM | 1100 nM | – | – | – | – | – | – | – | – | –
20 | 4400 nM | 2300 nM | 800 nM | 1000 nM | – | – | Cc1[nH]c2c(O)c3c(c(O)c2c1C(=O)N[C@@H]1CCNC1)C(=O)c1ccccc1C3=O | 14.7 µM | 1000 nM | – | – | – | – | – | – | – | – | –
21 | 400 nM | – | – | – | – | Active | COc1cccc2c1C(=O)c1c(O)c3c(c(O)c1C2=O)C[C@@](O)(C(=O)CO)C[C@@H]3O[C@H]1C[C@H](N)[C@H](O)[C@H](C)O1 [DOXORUBICIN] | 1 µM | 1700 nM | – | – | – | 5.5 µM | – | – | – | – | –

Row | Compound | IC50 [1] | IC50 [2] | IC50 [3] | IC50 [5] | IC50 [7] | Drug uptake [17] | IC50 [4] | IC50 [6] | Kb [8] | Activity [9] | Kd [10] | IC50 [11] | Ratio IC50 [12] | Activity [13] | Ratio [14] | Time [15] | T/C [16]
22 | Cc1c(C(=O)N2CC[C@H](N)C2)c2c(O)c3c(c(O)c2n1Cc1ccccc1)C(=O)c1ccccc1C3=O | 5400 nM | 1800 nM | 700 nM | 1100 nM | 1800 nM | – | 14.7 µM | 1600 nM | – | – | – | 5.5 µM | 7.9 | – | – | – | –
23 | Cc1[nH]c2c(O)c3c(c(O)c2c1C(=O)N1CC[C@@H](N)C1)C(=O)c1ccccc1C3=O | 500 nM | 1500 nM | 300 nM | 200 nM | – | – | 15.9 µM | 500 nM | – | – | – | – | – | – | – | 17.3 days | 150%
